# Experiments:
# IL-6 = assay: Level of expression of IL-6 in H9C2 cells treated with PLP under H2O2 oxidative stress; assay type: cell-based, rat
# Description: Subcultured H9C2 cells (rat myocardium) (ATCC No. CRL-1446, from the American Type Culture Collection in Manassas, Va.) were plated into six well plates at a concentration of about 10^6 cells per well and allowed to grow overnight. The wells were then treated with concentrations of pyridoxal-5′-phosphate at concentrations of about 0, 50, 100, 250, 500, and 1000 nM in the medium. The cells were incubated for about 40 minutes.
# An oxidative stressor, 1 mM H2O2 (Sigma, St. Louis, Mo.), was then added to each well. Supernantant samples were collected from the wells before addition of the 1 mM H2O2, and after 2, 4, 6, and 12 hours of exposure. The supernatant samples were stored at −20° C. until analyzed. The levels of IL-6 were then analyzed in each of the samples using test kits from Biosource Intl. (Camarillo, Calif.).
# [1] = in water, alcohol, and ether; cited from earlier work
# activated p38 = assay: Level of activated p38 in cells treated with PLP; assay type: cell-based, rat; details: data not shown
compound,measurement,setting,value
"Cc1ncc(COP(=O)(O)O)c(C=O)c1O [pyridoxal-5′-phosphate, 3-hydroxy-2-methyl-5-[(phosphonooxy)methyl]-4-pyridinecarboxaldehyde]",levels of IL-6 expression,"IL-6; H9C2 cells (rat myocardium) pretreated about 40 minutes with 100 nM or more, then 1 mM H2O2, FIG. 1",decreased levels of IL-6 expression
same,duration of the decrease of IL-6 levels,"IL-6; H9C2 cells, 100 nM, after application of oxidative stress (1 mM H2O2), FIG. 2",at least 12 hours
same,solubility,[1],essentially insoluble
same,level of activated p38,activated p38,did not effect the level of activated p38

# Reference: US20070032456A1, “Modulation of cell death” (priority 2003, published 2007)
